Experimental data from the kinase profiling compilation of Christmann-Franck et al. (2016).

How the values were obtained:
Assay in all cases: Caliper, Mobility shift assay off-chip
PAK3 (human) = PAK3 (human) (UniProt O75914)
MAP4K2 (human) = MAP4K2 (human) (UniProt Q12851)
CHEK2 (human) = CHEK2 (human) (UniProt O96017)
MARK4 (human) = MARK4 (human) (UniProt Q96L34)
PHKG1 (human) = PHKG1 (human) (UniProt Q16816)
ABL2 (human) = ABL2 (human) (UniProt P42684)
LATS2 (human) = LATS2 (human) (UniProt Q9NRM7)
DYRK2 (human) = DYRK2 (human) (UniProt Q92630)
ALK EML4 (human) = ALK EML4 (human) (UniProt Q9HC35+Q9UM73)
JAK1 JH1 JH2 (human) = JAK1 JH1 JH2 (human) (UniProt P23458)
JAK1 JH1 JH2 (human), sequence (P23458 whole entry, looked up): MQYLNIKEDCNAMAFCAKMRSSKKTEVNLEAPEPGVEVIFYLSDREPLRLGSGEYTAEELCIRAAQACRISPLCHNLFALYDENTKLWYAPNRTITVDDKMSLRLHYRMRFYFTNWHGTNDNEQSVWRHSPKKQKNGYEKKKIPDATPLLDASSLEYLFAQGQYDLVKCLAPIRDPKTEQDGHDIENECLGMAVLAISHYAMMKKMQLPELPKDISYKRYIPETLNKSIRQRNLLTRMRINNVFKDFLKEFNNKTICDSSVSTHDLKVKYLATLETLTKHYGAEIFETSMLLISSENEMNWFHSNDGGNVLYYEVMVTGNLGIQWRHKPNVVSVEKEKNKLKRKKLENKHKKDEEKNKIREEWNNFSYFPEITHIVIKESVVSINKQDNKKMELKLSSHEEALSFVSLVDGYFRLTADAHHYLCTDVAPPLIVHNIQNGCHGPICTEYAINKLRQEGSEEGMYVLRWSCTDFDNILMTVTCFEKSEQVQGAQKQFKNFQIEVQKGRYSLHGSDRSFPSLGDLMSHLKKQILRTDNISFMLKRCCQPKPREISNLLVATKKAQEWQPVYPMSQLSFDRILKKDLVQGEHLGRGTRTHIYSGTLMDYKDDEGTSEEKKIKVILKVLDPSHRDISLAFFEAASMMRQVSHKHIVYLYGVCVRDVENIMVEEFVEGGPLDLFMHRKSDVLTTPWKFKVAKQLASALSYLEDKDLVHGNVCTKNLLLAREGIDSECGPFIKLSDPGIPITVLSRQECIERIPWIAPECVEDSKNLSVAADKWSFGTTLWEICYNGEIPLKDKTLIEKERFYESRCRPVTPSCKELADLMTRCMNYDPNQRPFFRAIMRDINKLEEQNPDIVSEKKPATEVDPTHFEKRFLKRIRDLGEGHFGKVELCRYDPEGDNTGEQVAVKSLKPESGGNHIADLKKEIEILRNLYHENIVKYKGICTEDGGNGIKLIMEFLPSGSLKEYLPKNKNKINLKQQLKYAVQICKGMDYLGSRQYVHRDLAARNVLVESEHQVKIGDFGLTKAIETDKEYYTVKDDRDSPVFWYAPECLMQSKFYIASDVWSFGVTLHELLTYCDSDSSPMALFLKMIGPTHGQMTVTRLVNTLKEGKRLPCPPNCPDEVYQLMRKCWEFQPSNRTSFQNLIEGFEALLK

PDGFRA (human) = PDGFRA (human) (UniProt P16234)
EPHB4 (human) = EPHB4 (human) (UniProt P54760)
MAP4K4 (human) = MAP4K4 (human) (UniProt O95819)
PAK2 (human) = PAK2 (human) (UniProt Q13177)
WNK1 (human) = WNK1 (human) (UniProt Q9H4A3)
CAMK2B (human) = CAMK2B (human) (UniProt Q13554)
PAK1 (human) = PAK1 (human) (UniProt Q13153)
CIT (human) = CIT (human) (UniProt O14578)
CAMK2G (human) = CAMK2G (human) (UniProt Q13555)
PLK3 (human) = PLK3 (human) (UniProt Q9H4B4)
PLK3 (human), sequence (Q9H4B4 whole entry, looked up): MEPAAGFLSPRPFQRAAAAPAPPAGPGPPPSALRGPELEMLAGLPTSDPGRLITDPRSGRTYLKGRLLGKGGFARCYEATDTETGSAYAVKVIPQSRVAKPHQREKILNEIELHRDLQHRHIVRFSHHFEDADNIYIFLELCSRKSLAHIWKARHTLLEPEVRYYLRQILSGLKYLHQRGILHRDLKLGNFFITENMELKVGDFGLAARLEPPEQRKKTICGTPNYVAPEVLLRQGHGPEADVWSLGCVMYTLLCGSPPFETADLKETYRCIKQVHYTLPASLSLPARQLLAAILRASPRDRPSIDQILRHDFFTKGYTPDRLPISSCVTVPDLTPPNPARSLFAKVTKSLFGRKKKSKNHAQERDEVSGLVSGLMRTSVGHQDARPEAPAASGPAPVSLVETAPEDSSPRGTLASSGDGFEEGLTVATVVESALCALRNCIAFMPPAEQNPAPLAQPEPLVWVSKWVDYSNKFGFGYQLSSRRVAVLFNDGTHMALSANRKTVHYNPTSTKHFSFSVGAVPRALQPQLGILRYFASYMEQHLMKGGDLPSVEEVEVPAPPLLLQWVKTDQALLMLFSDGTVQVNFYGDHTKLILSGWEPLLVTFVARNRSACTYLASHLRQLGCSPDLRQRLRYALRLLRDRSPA

TAOK2 (human) = TAOK2 (human) (UniProt Q9UL54)
PDK2 (human) = PDK2 (human) (UniProt Q15119)
ALK NPM1 (human) = ALK NPM1 (human) (UniProt P06748+Q9UM73)
FLT1 (human) = FLT1 (human) (UniProt P17948)
FLT1 (human), sequence (P17948 whole entry, looked up): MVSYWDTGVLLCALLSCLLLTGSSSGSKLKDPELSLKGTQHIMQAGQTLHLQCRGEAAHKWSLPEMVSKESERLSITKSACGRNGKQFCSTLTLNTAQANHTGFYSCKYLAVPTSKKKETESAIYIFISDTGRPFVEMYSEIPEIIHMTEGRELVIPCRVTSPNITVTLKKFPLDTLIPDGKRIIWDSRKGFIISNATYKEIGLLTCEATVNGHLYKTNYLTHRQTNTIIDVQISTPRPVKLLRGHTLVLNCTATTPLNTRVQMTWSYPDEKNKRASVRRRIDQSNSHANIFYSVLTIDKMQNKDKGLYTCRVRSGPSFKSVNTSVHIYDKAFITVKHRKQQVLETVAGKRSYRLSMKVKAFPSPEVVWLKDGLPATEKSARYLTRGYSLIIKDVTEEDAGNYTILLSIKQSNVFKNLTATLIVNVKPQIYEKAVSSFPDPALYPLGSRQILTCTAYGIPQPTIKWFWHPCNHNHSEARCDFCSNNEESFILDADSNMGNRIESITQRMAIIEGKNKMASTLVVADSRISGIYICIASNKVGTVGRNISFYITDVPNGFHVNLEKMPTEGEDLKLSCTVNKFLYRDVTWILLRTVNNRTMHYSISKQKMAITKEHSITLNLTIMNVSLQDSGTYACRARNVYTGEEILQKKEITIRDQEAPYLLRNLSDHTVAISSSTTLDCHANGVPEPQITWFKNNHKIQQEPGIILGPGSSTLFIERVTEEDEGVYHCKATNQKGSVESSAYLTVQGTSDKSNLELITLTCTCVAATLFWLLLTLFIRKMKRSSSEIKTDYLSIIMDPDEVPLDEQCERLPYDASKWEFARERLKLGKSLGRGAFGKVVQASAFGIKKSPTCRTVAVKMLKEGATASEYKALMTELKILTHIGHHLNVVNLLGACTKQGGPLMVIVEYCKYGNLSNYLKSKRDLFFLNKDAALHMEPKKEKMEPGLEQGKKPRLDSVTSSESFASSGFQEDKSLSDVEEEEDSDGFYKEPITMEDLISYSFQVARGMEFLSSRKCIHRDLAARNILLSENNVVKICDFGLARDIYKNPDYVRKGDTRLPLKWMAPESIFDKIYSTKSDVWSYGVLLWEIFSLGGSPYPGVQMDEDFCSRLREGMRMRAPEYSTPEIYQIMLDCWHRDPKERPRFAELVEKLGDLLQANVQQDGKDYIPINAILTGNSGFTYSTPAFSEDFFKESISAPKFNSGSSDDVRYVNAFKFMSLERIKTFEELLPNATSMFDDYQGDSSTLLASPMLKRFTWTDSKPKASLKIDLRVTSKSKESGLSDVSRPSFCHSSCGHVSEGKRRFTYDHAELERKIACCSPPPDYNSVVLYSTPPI

ROS1 (human) = ROS1 (human) (UniProt P08922)
BTK (human) = BTK (human) (UniProt Q06187)
BRSK1 (human) = BRSK1 (human) (UniProt Q8TDC3)
PRKAA2 (human) = PRKAA2 (human) (UniProt P54646)
RPS6KB2 (human) = RPS6KB2 (human) (UniProt Q9UBS0)
RPS6KB2 (human), sequence (Q9UBS0 whole entry, looked up): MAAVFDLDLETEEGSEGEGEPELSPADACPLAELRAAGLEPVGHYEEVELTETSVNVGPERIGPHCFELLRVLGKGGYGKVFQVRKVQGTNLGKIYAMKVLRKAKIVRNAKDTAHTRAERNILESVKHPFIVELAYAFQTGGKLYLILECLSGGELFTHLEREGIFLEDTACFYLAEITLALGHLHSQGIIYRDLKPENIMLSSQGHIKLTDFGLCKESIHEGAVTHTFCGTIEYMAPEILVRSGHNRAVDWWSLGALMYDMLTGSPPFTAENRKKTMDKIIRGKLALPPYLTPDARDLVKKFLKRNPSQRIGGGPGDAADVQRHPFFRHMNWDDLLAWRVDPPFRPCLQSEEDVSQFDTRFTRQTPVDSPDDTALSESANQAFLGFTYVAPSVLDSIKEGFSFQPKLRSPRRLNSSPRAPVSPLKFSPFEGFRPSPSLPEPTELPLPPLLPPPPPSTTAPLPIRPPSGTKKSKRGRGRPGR

SRPK2 (human) = SRPK2 (human) (UniProt P78362)
SRPK2 (human), sequence (P78362 whole entry, looked up): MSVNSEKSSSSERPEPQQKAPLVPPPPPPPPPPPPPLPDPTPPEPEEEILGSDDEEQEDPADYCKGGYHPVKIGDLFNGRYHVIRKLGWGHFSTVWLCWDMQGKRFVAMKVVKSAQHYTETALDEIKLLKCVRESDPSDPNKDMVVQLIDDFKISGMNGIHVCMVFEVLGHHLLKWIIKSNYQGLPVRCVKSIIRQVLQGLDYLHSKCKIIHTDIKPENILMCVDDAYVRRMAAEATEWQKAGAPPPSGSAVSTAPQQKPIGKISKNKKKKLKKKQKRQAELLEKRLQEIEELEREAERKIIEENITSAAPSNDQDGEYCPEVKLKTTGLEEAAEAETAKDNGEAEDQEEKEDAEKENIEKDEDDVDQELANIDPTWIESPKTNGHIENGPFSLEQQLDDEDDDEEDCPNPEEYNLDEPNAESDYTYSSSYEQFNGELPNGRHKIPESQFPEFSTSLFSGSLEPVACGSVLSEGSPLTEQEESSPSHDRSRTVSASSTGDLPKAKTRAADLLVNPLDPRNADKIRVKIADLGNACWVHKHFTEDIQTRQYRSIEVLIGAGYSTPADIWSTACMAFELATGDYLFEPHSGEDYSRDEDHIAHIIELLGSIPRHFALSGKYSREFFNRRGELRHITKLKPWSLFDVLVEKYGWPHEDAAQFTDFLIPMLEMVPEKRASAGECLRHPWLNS

ALK (human) = ALK (human) (UniProt Q9UM73)

MARK4 (human), sequence (Q96L34 whole entry, looked up): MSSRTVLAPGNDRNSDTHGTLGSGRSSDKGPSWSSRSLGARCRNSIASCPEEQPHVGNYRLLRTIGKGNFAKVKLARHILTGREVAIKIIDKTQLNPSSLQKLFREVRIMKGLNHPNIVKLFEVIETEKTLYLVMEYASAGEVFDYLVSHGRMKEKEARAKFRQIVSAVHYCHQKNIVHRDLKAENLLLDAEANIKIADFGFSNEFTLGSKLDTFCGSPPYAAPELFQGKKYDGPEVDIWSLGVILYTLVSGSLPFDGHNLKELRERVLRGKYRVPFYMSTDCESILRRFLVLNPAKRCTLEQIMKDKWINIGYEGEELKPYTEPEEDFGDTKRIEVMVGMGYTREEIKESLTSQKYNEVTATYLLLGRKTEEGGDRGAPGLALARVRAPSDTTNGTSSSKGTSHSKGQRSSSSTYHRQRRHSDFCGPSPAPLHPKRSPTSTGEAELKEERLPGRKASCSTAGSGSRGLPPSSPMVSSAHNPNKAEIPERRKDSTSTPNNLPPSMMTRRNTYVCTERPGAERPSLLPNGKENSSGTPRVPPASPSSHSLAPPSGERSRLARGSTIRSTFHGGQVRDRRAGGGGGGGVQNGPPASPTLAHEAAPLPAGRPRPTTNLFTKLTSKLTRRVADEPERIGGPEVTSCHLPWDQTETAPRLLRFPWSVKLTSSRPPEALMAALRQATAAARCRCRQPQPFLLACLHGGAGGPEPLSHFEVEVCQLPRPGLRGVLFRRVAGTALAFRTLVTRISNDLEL

## Cc1ccc(Nc2nccc(N(C)c3ccc4c(C)n(C)nc4c3)n2)cc1S(N)(=O)=O
PAK3 (human); compound 0.02 µM
  inhibition: 5.7%
PAK3 (human); compound 0.2 µM
  inhibition: 2.6%
MAP4K2 (human); compound 0.02 µM
  inhibition: 2.6%
MAP4K2 (human); compound 0.2 µM
  inhibition: 28.7%
CHEK2 (human); compound 0.02 µM
  inhibition: 4.1%
CHEK2 (human); compound 0.2 µM
  inhibition: 4.1%
MARK4 (human); compound 0.02 µM
  inhibition: -4.1%
MARK4 (human); compound 0.2 µM
  inhibition: -6.3%
PHKG1 (human); compound 0.02 µM
  inhibition: -1.4%
PHKG1 (human); compound 0.2 µM
  inhibition: -1.9%
ABL2 (human); compound 0.02 µM
  inhibition: 2.6%
ABL2 (human); compound 0.2 µM
  inhibition: 27.6%
LATS2 (human); compound 0.02 µM
  inhibition: -2.1%
LATS2 (human); compound 0.2 µM
  inhibition: -0.3%
DYRK2 (human); compound 0.02 µM
  inhibition: 0.6%
DYRK2 (human); compound 0.2 µM
  inhibition: 4.1%
ALK EML4 (human); compound 0.02 µM
  inhibition: -0.3%
ALK EML4 (human); compound 0.2 µM
  inhibition: 6.8%
JAK1 JH1 JH2 (human); compound 0.02 µM
  inhibition: -2.2%
JAK1 JH1 JH2 (human); compound 0.2 µM
  inhibition: 0.8%
PDGFRA (human); compound 0.02 µM
  inhibition: 65.6%
PDGFRA (human); compound 0.2 µM
  inhibition: 95.6%
EPHB4 (human); compound 0.02 µM
  inhibition: -2.8%
EPHB4 (human); compound 0.2 µM
  inhibition: -2.6%
MAP4K4 (human); compound 0.02 µM
  inhibition: 3.9%
MAP4K4 (human); compound 0.2 µM
  inhibition: 24.6%
PAK2 (human); compound 0.02 µM
  inhibition: 5.5%
PAK2 (human); compound 0.2 µM
  inhibition: 2%
WNK1 (human); compound 0.02 µM
  inhibition: 1.6%
WNK1 (human); compound 0.2 µM
  inhibition: 5.1%
CAMK2B (human); compound 0.02 µM
  inhibition: -4.2%
CAMK2B (human); compound 0.2 µM
  inhibition: -5.5%
PAK1 (human); compound 0.02 µM
  inhibition: -3.6%
PAK1 (human); compound 0.2 µM
  inhibition: 1%
CIT (human); compound 0.02 µM
  inhibition: -2.3%
CIT (human); compound 0.2 µM
  inhibition: 0.3%
CAMK2G (human); compound 0.02 µM
  inhibition: 1.9%
CAMK2G (human); compound 0.2 µM
  inhibition: 2%
PLK3 (human); compound 0.02 µM
  inhibition: 5.4%
PLK3 (human); compound 0.2 µM
  inhibition: 5.7%
TAOK2 (human); compound 0.02 µM
  inhibition: 3.7%
TAOK2 (human); compound 0.2 µM
  inhibition: 22.3%
PDK2 (human); compound 0.02 µM
  inhibition: -2.3%
PDK2 (human); compound 0.2 µM
  inhibition: -4.2%
ALK NPM1 (human); compound 0.02 µM
  inhibition: 2.8%
ALK NPM1 (human); compound 0.2 µM
  inhibition: 2.1%
FLT1 (human); compound 0.02 µM
  inhibition: 66.5%
FLT1 (human); compound 0.2 µM
  inhibition: 99.8%
ROS1 (human); compound 0.02 µM
  inhibition: 17.8%
ROS1 (human); compound 0.2 µM
  inhibition: 69.7%
BTK (human); compound 0.02 µM
  inhibition: 2.4%
BTK (human); compound 0.2 µM
  inhibition: 3.1%
BRSK1 (human); compound 0.02 µM
  inhibition: 5.3%
BRSK1 (human); compound 0.2 µM
  inhibition: 3.2%
PRKAA2 (human); compound 0.02 µM
  inhibition: 7%
PRKAA2 (human); compound 0.2 µM
  inhibition: -6.6%
RPS6KB2 (human); compound 0.02 µM
  inhibition: 4.3%
RPS6KB2 (human); compound 0.2 µM
  inhibition: 6.7%
SRPK2 (human); compound 0.02 µM
  inhibition: -4.8%
SRPK2 (human); compound 0.2 µM
  inhibition: -3.2%
ALK (human); compound 0.02 µM
  inhibition: 10.1%
ALK (human); compound 0.2 µM
  inhibition: 7.9%
